Data on ten molecules can be found in patent US20260232682A1, “GSPT1 DEGRADER COMPOUNDS” (Captor Therapeutics S.A., priority 2023, published 2026).

In assay [1] the target is T1, GSPT1-HiBiT protein in GSPT1-HiBiT HEK293 cells (Homo sapiens, UniProt P15170+Q96SW2).
T1 construct: endogenous in cells; host or cells: HEK293 (CRISPR/Cas9 knock-in of HiBiT at the GSPT1 locus)
Kind of assay: GSPT1 degradation assay using HiBiT system (Nano-Glo HiBiT lytic assay). It is filed as cell-based. Particulars: 6 hours treatment; for DC50: read-out: HiBiT lytic assay Geomean absolute DC50. The source says:
The effect of selected compounds of the invention on GSPT1 protein levels was investigated, using the GSPT1-HiBiT HEK293 cell line and the Nano-Glo HiBiT degradation assay protocol below.
GSPT1-HiBiT HEK293 cells were generated in-house using the HEK293 parental cells (ATCC, cat. no 70016364) and the CRISPR/Cas9 system. HEK293 cells were transformed with pSpCas9-BB-2A-Puro v2.0 plasmid carrying gRNA targeting the C-terminus of GSPT1 and ssODN template containing the HiBiT tag sequence with flanking homology sequences. Neon Transfection System (Thermo Fisher Scientific) was used for electroporation. HEK293 GSPT1-HiBiT cells were cultured with DMEM Glutamax (Gibco) supplemented with 10% heat inactivated FBS (Gibco). After transfection the culture medium was changed to DMEM Glutamax with 10% heat-inactivated FBS and 1% Penicillin-Streptomycin (Biowest) supplemented with Puromycin (2 μg/ml; Invivogen) for clonal selection. In order to isolate single cell clones for further validation and analysis, limiting dilution cloning in 96-well plates was performed. When the single clones reached confluency, HiBiT Lytic Assay (Promega) was performed in order to identify HiBiT positive clones. The clone selected for further studies was verified and validated using genotyping and HiBiT Blotting (Promega).
Cells were maintained in DMEM Glutamax medium, supplemented with 1% penicillin/streptomycin and 10% Fetal Bovine Serum (FBS) at 37° C., 5% CO2. Compounds were stored frozen as 20 mM DMSO stocks.
For the Nano-Glo HiBiT assay, cells were seeded onto 384-well white solid bottom plate at 2×10^3 cells/well in 40 μL using the Agilent BioTek MultiFlo FX Multimode Dispenser and incubated overnight. Following overnight incubation (37° C., 5% CO2) cells were treated with the test compounds and vehicle only (DMSO) control using the Echo 555 Liquid Handler. Twelve data-point compound titration curve with concentrations ranging from 10 μM to 0.03 nM was used. Final DMSO concentration was kept constant at 0.25% v/v across the assay plate. After 6 hours of incubation (37° C., 5% CO2), plates were removed from the incubator and let to equilibrate to RT. Luminescent signal detection was conducted using the Nano-Glo HiBiT Lytic Detection System (Promega, cat. nr N3050). Nano-Glo HiBiT Lytic Reagent was prepared freshly by diluting the LgBiT Protein (1:100 vol/vol) and the Nano-Glo HiBiT Lytic Substrate (1:50 vol/vol) in the relevant volume of the Nano-Glo HiBiT Lytic Buffer. 40 μL of the HiBiT Lytic Reagent was added per well, plates were shaken to facilitate lysis (350 rpm, 5 min, RT) and incubated in the dark for the following 10 min. Luminescence was read using the PHERAstar multimode plate reader (BMG LABTECH). The raw data (the relative luminescence unit values, RLU) were uploaded under the relevant protocol and analysed in CDDVault data management platform. Luminescence (RLU) values were normalized to the controls, and reported absolute DC50 values and Dmax values were calculated in CDDVault using non-linear regression and appropriate equations.

For assay [2], the target named is T2, [SALL4 ZF2]-[compound]-[CRBN/DDB1] ternary complex (Homo sapiens, UniProt Q96SW2+Q9UJQ4).
T2 construct: SALL4 ZF2
Kind of assay: AlphaLISA assay for off-target recruitment detection, SALL4 ZF2. It is filed as binding. Particulars: 1 μM compound; normalized to Lenalidomide; read-out: Normalized ternary complex response, SALL4 ZF2. In short, it runs like this:
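Neo-substrate with 40 μg/ml donor beads and 200 nM 6×His-CRBN/DDB1 with 40 μg/ml anti-His acceptor beads were each prepared in PBS pH 7.4 with Tween-20 and 1 mM DTT, preincubated 30 min at RT, then mixed. Compounds at 2% DMSO were incubated 30 min at 25 °C, read at 680/615 nm, and normalised between DMSO background and reference glue maximum.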
Background: Alpha assays give light when donor and acceptor beads are brought close together.

The target in assay [3] is [GSPT1]-[compound of formula (I)]-[CRBN/DDB1] complex (Homo sapiens, UniProt P15170+Q96SW2). The assay can be described thus: AlphaLISA ternary complex formation assay (GSPT1). The following applies: 0.5 h; 1 μM compound; normalized to reference compound CC-885; read-out: Normalized AlphaLISA ternary complex average signal at 1 μM molecule. It is filed as binding. The method, then:
The effect of the molecular glue compounds of the invention on the formation of a ternary complex composed of [GSPT1]-[compound of formula (I)]-[CRBN/DDB1] was investigated with two methods: AlphaLISA dose response assay or HTRF ternary complex assay.
Two types of protein solution were prepared: • 200 nM biotinylated GSPT1 (Table 3), 40 μg/ml AlphaScreen Streptavidin-coated Donor Beads in HBS (10 mM HEPES, 150 mM NaCL, pH 7.4) buffer with 0.1% Tween-20 and 1 mM DTT, • 200 nM 6×His-CRBN/DDB1, 40 μg/ml AlphaLISA Anti-6×His Acceptor beads in HBS buffer with 0.1% Tween-20 and 1 mM DTT.
The prepared solutions were incubated at room temperature for 30 min and then the solution containing the donor beads was mixed with the solution containing the acceptor beads.
The tested compounds were dispensed onto a white 384-well AlphaPlate 384 SW. DMSO was backfilled to all wells, resulting in a final DMSO content of 2%. Wells containing only DMSO served as background. Next, 10 μl of solution with donor and acceptor beads was added to the wells.
The plate was sealed with transparent film and shaken using a VibroTurbulator for 60 sec at room temperature, level 3. The plate was then spun down shortly (10 sec, 1000 rcf, room temperature) and incubated at 25° C. for 30 min.
The read-out was performed with PerkinElmer Enspire Multimode Plate Reader (method for AlphaLISA 384-well low volume, Filterset: λexc=680 nm, λem=615 nm).
The results were analyzed as follows: • 1) an average of luminescence for background signal was calculated and used as a negative control; • 2) average of the maximum measured luminescence for reference compound (structure shown in Table 3 below) was calculated and used as an internal positive control; • 3) raw luminescence values were normalized against positive and negative controls; • 4) Normalized responses to positive control were determined.

Structures are written as SMILES.

T2 sequence (Q9UJQ4 410-432 limits assumed): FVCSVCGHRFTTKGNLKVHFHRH
T2 sequence (Q96SW2 whole entry): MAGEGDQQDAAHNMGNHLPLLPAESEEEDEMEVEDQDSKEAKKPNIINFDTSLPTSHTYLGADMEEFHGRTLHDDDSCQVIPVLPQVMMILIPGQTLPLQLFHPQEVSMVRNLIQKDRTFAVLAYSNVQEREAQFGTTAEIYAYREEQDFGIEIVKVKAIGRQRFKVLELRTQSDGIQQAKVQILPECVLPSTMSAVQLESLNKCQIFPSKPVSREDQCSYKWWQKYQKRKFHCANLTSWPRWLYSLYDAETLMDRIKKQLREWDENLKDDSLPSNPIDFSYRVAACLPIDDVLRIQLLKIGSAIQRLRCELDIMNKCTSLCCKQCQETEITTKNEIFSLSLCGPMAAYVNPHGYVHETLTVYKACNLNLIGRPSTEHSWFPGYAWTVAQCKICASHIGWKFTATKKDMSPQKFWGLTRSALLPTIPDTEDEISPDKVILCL
T2 sequence (Q16531 whole entry partner): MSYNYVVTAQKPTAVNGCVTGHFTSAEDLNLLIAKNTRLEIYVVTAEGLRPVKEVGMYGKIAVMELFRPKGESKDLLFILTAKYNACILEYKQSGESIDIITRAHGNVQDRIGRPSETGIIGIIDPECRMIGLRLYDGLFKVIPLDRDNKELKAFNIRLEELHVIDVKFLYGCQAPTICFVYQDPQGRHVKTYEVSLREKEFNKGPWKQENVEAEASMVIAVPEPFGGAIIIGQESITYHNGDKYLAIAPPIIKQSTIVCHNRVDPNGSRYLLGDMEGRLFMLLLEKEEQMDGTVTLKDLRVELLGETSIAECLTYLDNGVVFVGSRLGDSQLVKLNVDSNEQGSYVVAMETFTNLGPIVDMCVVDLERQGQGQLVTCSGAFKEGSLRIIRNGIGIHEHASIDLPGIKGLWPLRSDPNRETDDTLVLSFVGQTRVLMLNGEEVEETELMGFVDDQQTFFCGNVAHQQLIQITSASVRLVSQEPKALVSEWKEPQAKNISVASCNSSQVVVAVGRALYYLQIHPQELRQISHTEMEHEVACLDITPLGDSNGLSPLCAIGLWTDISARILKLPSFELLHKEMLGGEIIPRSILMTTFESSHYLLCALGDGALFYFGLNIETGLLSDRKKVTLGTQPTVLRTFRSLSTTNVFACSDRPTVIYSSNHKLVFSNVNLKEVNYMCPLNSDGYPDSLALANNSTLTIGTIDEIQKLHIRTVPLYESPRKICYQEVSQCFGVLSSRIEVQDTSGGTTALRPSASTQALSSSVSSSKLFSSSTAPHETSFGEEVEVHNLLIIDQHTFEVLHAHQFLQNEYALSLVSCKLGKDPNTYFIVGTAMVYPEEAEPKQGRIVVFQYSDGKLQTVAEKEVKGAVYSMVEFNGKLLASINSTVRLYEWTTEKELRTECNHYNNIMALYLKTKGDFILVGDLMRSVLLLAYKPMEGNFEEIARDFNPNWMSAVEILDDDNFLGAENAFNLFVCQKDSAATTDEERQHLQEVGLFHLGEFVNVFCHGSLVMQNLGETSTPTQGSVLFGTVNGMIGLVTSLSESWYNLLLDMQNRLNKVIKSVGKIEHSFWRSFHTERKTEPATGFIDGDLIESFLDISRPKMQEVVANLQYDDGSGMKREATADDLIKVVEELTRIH
Chain of [GSPT1]-[compound of formula (I)]-[CRBN/DDB1] complex (P15170 whole entry): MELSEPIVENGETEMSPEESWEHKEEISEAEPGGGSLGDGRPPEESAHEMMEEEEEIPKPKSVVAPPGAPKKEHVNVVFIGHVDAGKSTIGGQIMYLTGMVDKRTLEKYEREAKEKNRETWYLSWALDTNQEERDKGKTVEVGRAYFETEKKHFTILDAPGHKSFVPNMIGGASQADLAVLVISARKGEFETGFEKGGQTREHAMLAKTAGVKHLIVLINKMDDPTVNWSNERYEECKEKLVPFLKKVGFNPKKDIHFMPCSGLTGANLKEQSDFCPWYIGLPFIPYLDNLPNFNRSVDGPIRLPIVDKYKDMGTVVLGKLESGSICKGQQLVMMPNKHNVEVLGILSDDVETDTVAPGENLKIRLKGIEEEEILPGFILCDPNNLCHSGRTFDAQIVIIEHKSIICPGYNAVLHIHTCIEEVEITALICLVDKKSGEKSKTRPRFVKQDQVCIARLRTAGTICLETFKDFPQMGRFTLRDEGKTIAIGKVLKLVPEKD
Chain of [GSPT1]-[compound of formula (I)]-[CRBN/DDB1] complex (Q96SW2 whole entry): as the sequence (Q96SW2 whole entry) above
Chain of [GSPT1]-[compound of formula (I)]-[CRBN/DDB1] complex (Q16531 whole entry partner): as the sequence (Q16531 whole entry partner) above
T1 sequence (P15170 whole entry): as the sequence (P15170 whole entry) above
T1 sequence (Q96SW2 whole entry): as the sequence (Q96SW2 whole entry) above
T1 sequence (Q16531 whole entry partner): as the sequence (Q16531 whole entry partner) above

The term Dmax denotes the greatest extent of degradation seen. Low values mean shallow degradation, high ones deep degradation. Usually DC50 stands for the concentration at which degradation of the target reaches its halfway point. Consider `Cc1nc2cc(COC(=O)Nc3cccc(OC(F)(F)F)c3)ccc2cc1C1CCC(=O)NC1=O` (stereo not drawn) [Compound 19, (3-(2,6-dioxopiperidin-3-yl)-2-methylquinolin-7-yl)methyl (3-(trifluoromethoxy)phenyl)carbamate], for which, in assay [1], the Dmax is not below 75%. For the same molecule, the DC50 in assay [1] is less than 10 nM. Moreover, the values for the activation at 1 µM in assay [2] and in assay [3] were less than 10% and 10 to 50%, respectively.
Taken in the same sequence, the figures for `Cc1ccc(NC(=O)OCc2cc3nc(C)c(C4CCC(=O)NC4=O)cc3cc2F)cc1Cl` (stereo not drawn) [Compound 49, (3-(2,6-dioxopiperidin-3-yl)-6-fluoro-2-methylquinolin-7-yl)methyl (3-chloro-4-methylphenyl)carbamate] were not below 75%, 50 to 100 nM, less than 10% and 10 to 50%.
As to `Cc1nc2cc(COC(=O)Nc3ccc(C(C)(C)C)c(Cl)c3)ccc2cc1C1CCC(=O)NC1=O` (stereo not drawn) [Compound 10, (3-(2,6-dioxopiperidin-3-yl)-2-methylquinolin-7-yl)methyl (4-(tert-butyl)-3-chlorophenyl)carbamate], in assay [1], the Dmax was not below 75% and the DC50 was less than 10 nM. In addition, the activation at 1 µM in assay [2] was less than 10%. Moreover, the activation at 1 µM in assay [3] was in the range of 10 to 50%.
Taken in the same sequence, the figures for `Cc1nc2cc(COC(=O)Nc3cc(OC(F)(F)F)ccc3F)ccc2cc1C1CCC(=O)NC1=O` (stereo not drawn) [Compound 6, (3-(2,6-dioxopiperidin-3-yl)-2-methylquinolin-7-yl)methyl (2-fluoro-5-(trifluoromethoxy)phenyl)carbamate] were not below 75%, 10 to 50 nM, less than 10% and 10 to 50%.
For the molecule `Cc1nc2ccc(COC(=O)Nc3cc(C(C)(C)C)no3)cc2cc1N1CCC(=O)NC1=O` [Compound 66, (3-(2,4-dioxotetrahydropyrimidin-1(2H)-yl)-2-methylquinolin-6-yl)methyl (3-(tert-butyl)isoxazol-5-yl)carbamate], in assay [1], the Dmax is not below 75% and the DC50 is 10 to 50 nM. Moreover, in assay [2], the activation at 1 µM is 25 to 50%. For the same molecule, in assay [3], the activation at 1 µM was more than 50%.
For `Cc1nc2cc(COC(=O)Nc3cc(Cl)c(C)c(CN4CCOCC4)c3)ccc2cc1C1CCC(=O)NC1=O` (stereo not drawn) [Compound 17, (3-(2,6-dioxopiperidin-3-yl)-2-methylquinolin-7-yl)methyl (3-chloro-4-methyl-5-(morpholinomethyl)phenyl)carbamate], in assay [1], the Dmax was not below 75% and the DC50 is less than 10 nM. Besides, the activation at 1 µM in assay [2] was less than 10%. Besides, in assay [3], the activation at 1 µM lay in the range of 10 to 50%.
In assay [1], `Cc1ccc(NC(=O)OCc2cc(F)c3cc(C4CCC(=O)NC4=O)c(C)nc3c2)cc1Cl` (stereo not drawn) [Compound 22, (3-(2,6-dioxopiperidin-3-yl)-5-fluoro-2-methylquinolin-7-yl)methyl (3-chloro-4-methylphenyl)carbamate] came in with a Dmax not below 75%. For the same molecule, the DC50 in assay [1] lay within 10 to 50 nM. In addition, the activation at 1 µM in assay [2] is less than 10%; in assay [3], more than 50%.
The matching figures for `Cc1ccc(NC(=O)OCc2ccc3cc(C4(F)CCC(=O)NC4=O)c(C)nc3c2)cc1Cl` (stereo not drawn) [Compound 74, (3-(3-fluoro-2,6-dioxopiperidin-3-yl)-2-methylquinolin-7-yl)methyl (3-chloro-4-methylphenyl)carbamate]: not below 75%, more than 100 nM, less than 10% and 10 to 50%.
As to `Cc1ccc(NC(=O)OCc2ccc3nc(C)c(C4CCC(=O)NC4=O)cc3c2)cc1Cl` (stereo not drawn) [Compound 5, (3-(2,6-dioxopiperidin-3-yl)-2-methylquinolin-6-yl)methyl (3-chloro-4-methylphenyl)carbamate], the activation at 1 µM in assay [2] was 25 to 50%; in assay [3] it was more than 50%.
The matching figures for `Cc1ccc(NC(=S)NCc2ccc3cc(C4CCC(=O)NC4=O)c(C)nc3c2)cc1Cl` (stereo not drawn) [Compound 2, 1-(3-chloro-4-methylphenyl)-3-((3-(2,6-dioxopiperidin-3-yl)-2-methylquinolin-7-yl)methyl)thiourea]: less than 10% and 10 to 50%.
